# Source: a melting point compilation (Tetko et al.; mined from patent text by program, amines drawn as free bases though some values may be those of a salt)
row,SMILES,melting point
1,CC(COc1ccc(O)c(C(N)=O)c1)N(Cc1ccccc1)CC(O)COc1ccc(OCC(N)=O)cc1 (configuration not stated),145 to 149 °C
2,N#Cc1ncc(Cl)nc1Br,66 to 67 °C
3,COC(=O)[C@@H]1C[C@H](OS(=O)(=O)c2ccccc2Br)C(=O)[C@@H]2[C@@]3(C)C[C@@H](c4ccoc4)OC(=O)[C@H]3CC[C@]21C,162 to 163 °C
4,CCCN(SCNC(=O)ON=C(C)SC)P(=S)(OCC)OCC,68 to 69 °C
5,C[C@H]1N(C(=O)c2ccc(OCC(F)(F)C(F)F)cc2)CC(=O)O[C@@]1(Cn1cncn1)c1ccc(F)cc1F (relative stereo),78 to 83 °C
6,CCN(CC)C(=N)N[N+](=O)[O-],96 to 97 °C
7,CN(CC(=O)C(Cc1c[nH]c2ccccc12)NC(=O)c1ccccc1)C(=O)N1CCCC1C(=O)O (configuration not stated),102 to 128 °C
8,O=C(O)c1cc(-c2ccc(C(F)(F)F)cc2)nc(C(F)(F)F)c1,204 to 205 °C
9,Cc1cccc(Oc2cccc(NC(=O)c3ccn4c3CSC4c3cccnc3)c2)c1 (configuration not stated),149 °C
10,O=c1[nH]ncn1-c1ccc(I)cc1,258 °C
11,COC(=O)c1cnn2c(O)cc(C(F)(F)F)nc12,216 to 217 °C
12,CCN(CC)c1ccc(C(c2ccc(N(C)C)cc2)c2ccc(N(C)C)cc2)c(OC(=O)Nc2ccccc2)c1,145 to 146 °C
13,CCCCCCCCCCCCc1nnn(C(C(N)=O)(c2ccccc2)c2ccc(F)cc2F)n1 (configuration not stated),62 to 64 °C
14,O=C(Nc1ccc(-n2nc(C(F)(F)F)cc2C(F)(F)F)cc1)C1CCCCCC1,174 to 175 °C
15,C[Si](C)(C)CC(CN)CC(=O)O (configuration not stated),167 to 168 °C
16,CCCCCCNC(=O)CS(=O)(=O)Nc1c(C(C)C)cccc1C(C)C,125 to 127 °C
17,CCOc1nsc(NC(=O)N(C)C)c1C#N,204 to 205 °C
18,CCOC(=O)c1c2n(c3c(F)c(N4CCC(N(C)C)C4)c(F)cc3c1=O)C(C)S2 (configuration not stated),165 to 168 °C
19,CCc1ccc2oc(Cc3cccc(OC)c3)c(CCNC(C)=O)c2c1,102 °C
20,Brc1ccsc1Cc1c[nH]cn1,212 to 214 °C

row,SMILES,melting point
1,CC1(C)CNC(=O)C(=O)N1c1cc(F)cc2ccoc12,162 to 165 °C
2,Cn1nnnc1CN1CCC[C@@H](OCc2cc(C(F)(F)F)cc(C(F)(F)F)c2)[C@H]1c1ccccc1 (relative stereo),75 to 77 °C
3,COC(=O)c1cc(I)c(O)c(C(C)(C)C)c1,67 °C
4,O=C(O)c1ccccc1C(=O)N1CC2CCC(C1)O2,149 to 150 °C
5,CCCc1c(OCC2COc3cc(CC(=O)O)ccc3O2)ccc(C(C)=O)c1O (configuration not stated),143 to 146 °C
6,Cc1ccc(CNC(=O)c2ccc3n2Cc2ccccc2N(C(=O)COc2ccc(Cl)cc2)C3)cc1,174 to 176 °C
7,CCN(CC)CC1CN=C(N)O1 (configuration not stated),90 °C
8,CC(C)(C)c1nc(C=NO)nc(C(C)(C)C)c1O,205 to 220 °C
9,S=C(NCCN(Cc1ccc(Cl)c(Cl)c1)c1ccc(Br)cn1)Nc1ccc(N2CCCCC2)cc1,146 to 148 °C
10,O=C1CCN(CCCN2c3cccc4cccc(c34)S2(=O)=O)CC1,108 °C
11,CN1C(=O)c2cnc(-c3ccccc3)nc2N(C(=O)CN2CCOCC2)c2ccccc21,180 to 181 °C
12,CCOC(=O)C1=C(C)N(C(=O)OCC)C(C)=C(C(=O)OCC)C1c1ccccc1C(F)(F)F,56 to 58 °C
13,CNC(=O)C1=CC(CF)(CF)Oc2ccc(C(F)(F)C(F)(F)F)cc21,127 to 128 °C
14,COc1ccc(N2CCN(c3c(C)c4c(c(OC)c3C)OC(C)C4)CC2)cc1C (configuration not stated),94 to 96 °C
15,CCCO[C@@H]1[C@@H](OC)[C@H](C)O[C@@H](OC(=O)Nc2ccc(-c3ncn(-c4ccc(OC(F)(F)C(F)(F)F)cc4)n3)cc2)[C@@H]1OC,158 °C
16,CC(C)(C)C(Br)(Br)C(=O)O,241 to 243 °C
17,CCOC(=O)c1cc(NC(C)=O)ccc1OC(C)=O,91.5 to 92.5 °C
18,N#Cc1ccc(-c2nc(C(=O)Nc3nccs3)c(-c3ccc(F)cc3)[nH]2)cc1,> 250 °C
19,Cc1ccc(S(=O)(=O)n2cc([C@@H]3C[C@H]3C=O)c3cc(C#N)ccc32)cc1 (relative stereo),165 to 167 °C
20,COC(=O)c1ccc(NC(=O)[C@H](Cc2ccccc2)NC(=O)OC(C)(C)C)cc1,173 to 175 °C

row,SMILES,melting point
1,ON=c1cc(-c2cc3cccn3cn2)oc2cccc(C(F)(F)F)c12,255 to 257 °C
2,CCOC(=O)C(C)(C(=O)OCC)C1CCCC(=O)C1 (configuration not stated),129 to 130 °C
3,CCCCCCCCCCCCP(=O)(O)CCCN,175 to 177 °C
4,Clc1cc2c(nn1)CCCCC2,74 to 75 °C
5,O=C(NC1CCN(CC(O)c2ccccc2)CC1)c1ccccc1 (configuration not stated),178 to 180 °C
6,CC1OC(OCc2ccccc2)C(F)C(O)C1O (configuration not stated),124 to 126 °C
7,CC(NC(=O)NC1N=C(c2ccccc2)c2ccccc2N(C)C1=O)c1ccccc1 (configuration not stated),146 to 150 °C
8,CCCCCCCCCCCCCCCCCCOc1cc(OCCCOc2ccccc2)cc(C(=O)N(CC(=O)O)CC(=O)O)c1,86 to 90 °C
9,Cc1ccc(N2C(=O)C(O)=C(C(=O)c3ccc(C(C)C)cc3)C2c2ccc(N(C)C)cc2)nn1 (configuration not stated),283 to 286 °C
10,Nc1ccc(Oc2ccc(C(c3ccc(Oc4ccc(N)c(O)c4)cc3)(C(F)(F)F)C(F)(F)F)cc2)cc1O,178 to 181 °C
11,COc1cc(C=CC=O)ccc1OC(C)C,93 to 94 °C
12,CC(C)CCCC(C)NC(=O)Oc1ccc(Oc2ccc(Cl)cc2)cc1 (configuration not stated),46 to 48 °C
13,CCCCCCC(C)(C)c1ccc(C2=CC(=O)CCC2)c(O)c1,122 to 123 °C
14,COc1cc(C(O)CS(C)(=O)=O)cc(OC)c1N(C)C(C)=O (configuration not stated),175 to 177 °C
15,COc1ccc(C=CC(=O)NCCc2ccc(OC(C)(C)C(=O)O)cc2)cc1,158 to 159 °C
16,CCC1C(C)=NN=C(c2ccccc2F)c2cc(OC)c(OC)cc21 (configuration not stated),86 to 88 °C
17,Cc1n[nH]c2cc(-c3nn(Cc4oc5ccccc5c(=O)c4-c4cccc(F)c4)c4ncnc(N)c34)ccc12,246 to 248 °C
18,O=C(O)CCCCCCc1nc2c(F)c(F)cc(F)c2s1,116 to 118 °C
19,Cc1cc(C2=NN(C(N)=S)[C@H](C)Cc3cc4c(cc32)OCO4)ccc1[N+](=O)[O-],123 to 125 °C

# Second part, the compound after the results:
row,melting point,SMILES
1,210 to 212 °C,Nc1c2c(nc3ccccc13)CCS2
2,48 °C,N=C(c1ccccc1)c1ccccc1N
3,78 to 81 °C,NC(=O)c1cc(OCCCCNCc2ccccc2)ccc1O
4,159 to 161 °C,CCC(CC)Oc1cc(C)nc2c1nc(N)n2-c1c(C)cc(C)cc1C
5,152 to 154 °C,COc1cc(-c2ccc(Cl)s2)cc2oc(=O)c(C)c(C)c12
6,147 °C,CNC(=O)Nc1cccc(OC(=O)N(CCC#N)c2ccccc2)c1
7,112 to 113 °C,COc1ccc2cnc(N)nc2c1C(C)C
8,48 to 50 °C,Cc1cccc2c(Cl)c(Cl)sc12
9,144 to 145 °C,Cn1cc(Oc2ccccc2)c(=O)c(-c2cccc(C(F)(F)F)c2)c1
10,203 to 206 °C,O=C1Nc2cc(-c3ccco3)ccc2C2CCCC12F (configuration not stated)
11,195 °C,CCc1c(Br)c2ccccn2c1C(=O)c1cc(Br)c(O)c(Br)c1
12,87 to 88 °C,Cc1ccnc([N+](=O)[O-])c1O
13,178 to 180 °C,CC(=O)Oc1ccc(-c2ccc3cc(OC(C)=O)ccc3c2)cc1
14,56 to 57 °C,CCCCc1c(C=O)ccc2cc(OC)ccc12
15,92 to 93 °C,CCOC(=O)COc1cc2ccsc2c(Cl)c1Cl
16,78 °C,CC(=O)SCC(=Cc1cccc2ccccc12)C(=O)NCCC(=O)OCc1ccccc1
17,92 °C,CCCCNC(=O)N(c1ccccc1)c1ccccc1
18,81 to 82 °C,Cc1cc(C)nc(Nc2ccc(OC(F)F)cc2)n1
19,185 to 186 °C,CCCn1nc2c(N)nc3ccccc3c2c1CCNC(C)=O
20,184 °C,CCCCCNS(=O)(=O)NC(=O)/C=C/c1c(C)nn(C)c1-n1ccc2cc(Cl)ccc21
21,222 to 224 °C,CCOC(=O)C1(C)C(=O)Nc2cc(NC(=O)c3ccncc3)ccc21 (configuration not stated)
22,178 to 180 °C,Oc1ccc(-c2nc(-c3ccccc3)nc3ccccc23)c(O)c1

row,melting point,SMILES
1,84 to 88 °C,CCCCc1ncc(CC(=O)NCC(=O)O)n1Cc1ccccc1Cl
2,227 to 229 °C,COC(=O)C1=C(C)Nc2nccn2C1c1cccc(C(C)=O)c1 (configuration not stated)
3,75 °C,Cc1c(Cl)ccc(S(=O)(=O)Cl)c1Cl
4,252 to 253 °C,COC(=O)c1c(C(=O)OC)c2n(c1C)Cc1[nH]c3ccccc3c1C2
5,131 to 133 °C,Nc1ccnc(CSCCN2C(=O)c3ccccc3C2=O)n1
6,146 to 155 °C,Nc1nc2ccccc2c2c1ncn2CCCCCCNC(=O)c1ccccc1
7,175 °C,Cc1cc(Cl)nc(Nc2ccccc2[N+](=O)[O-])n1
8,144 to 145 °C,CCCCc1cc(C(O)=S)cc(N)c1C(=O)c1ccccc1
9,73 to 76 °C,N#CCCCc1ncc(Br)cc1[N+](=O)[O-]
10,185 to 188 °C,CCc1c(CC)n(Cc2ccccc2Cl)c2cc(C(N)=O)ccc12
11,74 to 75 °C,CCCCCCCCCOc1cc([N+](=O)[O-])ccc1N
12,208 to 211 °C,CNC(=S)n1nc(-c2ccc(Cl)nc2)nc1N
13,115 °C,Cc1nc2c(n1Cc1ccccc1)CCCC2=O
14,150 to 151 °C,COc1ccnc(CS(=O)c2nc3c(C(F)(F)F)cccc3[nH]2)c1 (configuration not stated)
15,220 to 223 °C,COc1ccc(Cl)cc1NC(=S)C1CCCCn2c1nc(-c1ccncn1)cc2=O (racemic)
16,192 to 195 °C,COC(=O)c1nc(-c2ccc(Cl)c(OC)c2F)nc(O)c1Br
17,108 to 110 °C,O=C(O)C1CSC(c2ccccc2OCCCCO[N+](=O)[O-])N1 (configuration not stated)
18,160 °C,COc1cccc(Oc2ccc3ccc(N)nc3n2)c1
19,265 to 267 °C,CNc1nc(Nc2ccc(Cl)c(Cl)c2)ncc1NC(=O)c1ccccc1
20,141 to 143 °C,Cc1cccc(Nc2nnc(Cc3ccncc3)c3ccccc23)c1
21,211 to 212 °C,CCS(=O)(=O)Nc1cc(C2(NC)NC=NC=C2Cl)c(F)cc1C#N (configuration not stated)
